Source: patent US4594348A, “Use of some 2-[2-[4-phenyl-1-piperazinyl]ethyl]-1H-naphth-[1,2-D]imidazole derivatives and their pharmaceutically acceptable salts in the treatment of cardiovascular diseases” (Gruppo Lepetit S.p.A., priority 1984, dated 1986)

Key:
[1] = system: conscious normotensive dogs; assay: Myocardial contractility in conscious normotensive dogs; assay type: in vivo, dog (mongrel); conditions: single oral 20 mg/kg; for Myocardial contractility / % Δ of myocardial contractility: Table V
Procedure: (§1) As for the experiments with conscious normotensive dogs, mongrel dogs with incannulated abdominal aorta or with incannulated abdominal aorta and cardiac left ventricle were used. The compounds were administered by oral route as powder in gelatine capsules. Mean blood pressure (M.B.P.) was registered directly using a Bentley pressure transducer.
Myocardial contractility was calculated as
1/P·dp/dt ^(max)
The results of this experiment, which was conducted after a single oral administration of 20 mg/kg of the test compound, are summarized below: […]

[2] = system: conscious normotensive dogs; assay: Blood pressure in conscious normotensive dogs (oral); assay type: in vivo, dog (mongrel); conditions: for % systolic blood pressure variation: Table II, oral; for Mean systolic blood pressure / % Δ of mean systolic blood pressure: Table V, single oral 20 mg/kg
Procedure: as §1

[3] = system: mongrel dogs; conditions: dog, in vivo
[4] = system: mongrel dogs; assay: CNS-depressant activity in mongrel dogs (oral); conditions: 100 mg/kg
[5] = system: Beagle dogs; conditions: dog, in vivo, po
[6] = system: renal hypertensive dogs; assay: Heart rate in renal hypertensive dogs; assay type: in vivo, dog (mongrel); conditions: experiments of Table III, oral
Procedure: (§2) More particularly, in the experiments with conscious renal hypertensive dogs, mongrel dogs with two clips on the renal arteries were used according to the Goldblatt's method. The compounds were administered by oral route as powder in gelatine capsules. Systolic blood pressure (SBP) was registered at the tail (indirect method).

[7] = system: mice; assay: "running-fit" test (antagonism of the effects of morphine); assay type: in vivo, mouse; conditions: morphine 60 mg/Kg s.c.
Procedure: This test is conducted essentially as described in the literature.

[8] = system: renal hypertensive dogs; assay: Tachiphylaxis experiment: daily oral administration for 7 consecutive days, systolic blood pressure; assay type: in vivo, dog; conditions: for % Δ of S.B.P., peak effect (7h) / S.B.P., basal value / S.B.P., peak effect (7h) / % Δ of S.B.P., basal value: Table IV, 10 mg/kg/die per os
[9] = system: conscious renal hypertensive dogs; assay: Systolic blood pressure in conscious renal hypertensive dogs (oral, Goldblatt's method); assay type: in vivo, dog (mongrel); conditions: for % systolic pressure variation: Table I; for % Δ (% variation of the S.B.P. over the basal value) / S.B.P. (systolic blood pressure): Table III; for S.B.P. (systolic blood pressure): mean ± SE
Procedure: The experiments herein described which use renal hypertensive dogs are conducted essentially as described in the above cited text.
as §2
^a S.B.P. = Systolic blood pressure. It is determined after oral
administration where three animals were employed for each dose. It is
expressed in mmHg as mean value ± SE.
^b % Δ = % variation of the S.B.P. over the basal value (time
0) at the indicated time after administration.

[10] = system: renal hypertensive dogs; assay: CNS depressant effect and tachycardia during prolonged (7-day) treatment in dogs; assay type: in vivo, dog; conditions: per os 10 mg/kg/die, 7 days
[11] = Acute toxicity (LD50) in mice; conditions: mouse, in vivo
Procedure: The LD50 values of the compounds of the invention are generally higher than 500 mg/kg when given per os and generally higher than 200-300 mg/kg when given intraperitoneally to mice. In particular, the approximate LD50 values for compound 3 in mice were 1000 mg/kg after oral administration and 600 mg/kg after i.p. administration. […] Representative experiments were conducted essentially as described by B. N. Ames, J. McCann., E. Yamasaki, "Methods for detecting carcinogens and mutagens with the salmonella/microsome mutagenicy test" in Mutation Research, 31, 347-364, (1975).

With CC(C)n1c(CCN2CCN(c3cccc(C(F)(F)F)c3)CC2)nc2ccc3ccccc3c21.O=C(O)CC(O)(CC(=O)O)C(=O)O [Compound 3, 2-[2-[4-(3-trifluoromethylphenyl)-1-piperazinyl]ethyl]-1-(1-methylethyl)-1H-naphth[1,2-d]imidazole, 2-hydroxy-1,2,3-propantricarboxylate] the Myocardial contractility ([1]; 0 min (basal)) was 48 mmHg sec^-1, the “% Δ of myocardial contractility” value ([1]; 60 min) was “+10%” and the Myocardial contractility ([1]; 60 min) was 53 mmHg sec^-1. The “% Δ of myocardial contractility” value ([1]; 120 min) was “+12%”, the Myocardial contractility ([1]; 120 min) was 54 mmHg sec^-1 and the “% Δ of myocardial contractility” value ([1]; 180 min) was “+10%”. The Myocardial contractility ([1]; 180 min) was 53 mmHg sec^-1, the “% Δ of myocardial contractility” value ([1]; 300 min) was “+12%” and the Myocardial contractility ([1]; 300 min) was 54 mmHg sec^-1. For the same molecule, the “% Δ of myocardial contractility” value ([1]; 360 min) was “+6%”, the Myocardial contractility ([1]; 360 min) was 51 mmHg sec^-1 and the “effect on myocardial contractility (in words)” value ([1]; conscious normotensive dogs) was “proved not to reduce the myocardial contractility”. The “% systolic blood pressure variation” value ([2]; 10 mg/kg) was -16%, the “% systolic blood pressure variation” value ([2]; 20 mg/kg) was -15% and the “Mean systolic blood pressure” value ([2]; 0 min (basal)) was 120 mmHg. For the same molecule, the “% Δ of mean systolic blood pressure” value ([2]; 60 min) was -0%, the “Mean systolic blood pressure” value ([2]; 60 min) was 120 mmHg and the “% Δ of mean systolic blood pressure” value ([2]; 120 min) was -12%. The “Mean systolic blood pressure” value ([2]; 120 min) was 106 mmHg, the “% Δ of mean systolic blood pressure” value ([2]; 180 min) was -15% and the “Mean systolic blood pressure” value ([2]; 180 min) was 102 mmHg. For the same molecule, the “% Δ of mean systolic blood pressure” value ([2]; 300 min) was -17%, the “Mean systolic blood pressure” value ([2]; 300 min) was 100 mmHg and the “% Δ of mean systolic blood pressure” value ([2]; 360 min) was -12%. For the same molecule, the “Mean systolic blood pressure” value ([2]; 360 min) was 106 mmHg, the “dose beginning CNS-depressant activity relative to effective antihypertensive dose” value [3] was “at least about ten times higher” and the “dose at which signs of CNS-depression begin” value ([3]; po) was 100 mg/kg. For the same molecule, the “signs of CNS-depression” value [4] was “slight sedation and very slight motor incoordination”, the “dose at which CNS-depressant effects begin” value [5] was “higher than 100 mg/kg” and the heart rate [6] was “no increase in the heart rate was observed but only a slight and transient decrease”. For the same molecule, the “antagonism of morphine in "running-fit" test” value ([7]; 30 mg i.p.) was “inactive”, the “antagonism of morphine in "running-fit" test” value ([7]; 60 mg per os) was “inactive” and the “% Δ of S.B.P., peak effect (7h)” value ([8]; day 1 of treatment) was -20%. For the same molecule, the “S.B.P., basal value” ([8]; day 1 of treatment) was 210 mmHg, the “S.B.P., peak effect (7h)” value ([8]; day 1 of treatment) was 170 mmHg and the “% Δ of S.B.P., basal value” ([8]; day 3 of treatment) was -5%. For the same molecule, the “% Δ of S.B.P., peak effect (7h)” value ([8]; day 3 of treatment) was -20%, the “S.B.P., basal value” ([8]; day 3 of treatment) was 200 mmHg and the “S.B.P., peak effect (7h)” value ([8]; day 3 of treatment) was 170 mmHg. For the same molecule, the “% Δ of S.B.P., basal value” ([8]; day 5 of treatment) was -12%, the “% Δ of S.B.P., peak effect (7h)” value ([8]; day 5 of treatment) was -24% and the “S.B.P., basal value” ([8]; day 5 of treatment) was 185 mmHg. For the same molecule, the “S.B.P., peak effect (7h)” value ([8]; day 5 of treatment) was 160 mmHg, the “% Δ of S.B.P., basal value” ([8]; day 7 of treatment) was -15% and the “% Δ of S.B.P., peak effect (7h)” value ([8]; day 7 of treatment) was -29%. The “S.B.P., basal value” ([8]; day 7 of treatment) was 180 mmHg, the “S.B.P., peak effect (7h)” value ([8]; day 7 of treatment) was 150 mmHg and the tachiphylaxis ([8]; per os daily for 7 consecutive days, 10 mg/kg/die) was “proved not to induce tachiphylaxis”. The minimal effective dose ([9]; Canis lupus familiaris, po, read-out: dose active in reducing the systolic blood pressure) was ≤ 5 mg/kg, the “% systolic pressure variation” value ([9]; renal hypertensive dogs, oral, 20 mg/kg) was -24% and the “% systolic pressure variation” value ([9]; renal hypertensive dogs, oral, 30 mg/kg) was -20%. For the same molecule, the “% Δ (% variation of the S.B.P. over the basal value)” value ([9]; oral 5 mg/kg, 1 h) was -3%, the “S.B.P. (systolic blood pressure)” value ([9]; oral 5 mg/kg, 1 h) was 205 ± 5 mmHg and the “% Δ (% variation of the S.B.P. over the basal value)” value ([9]; oral 5 mg/kg, 3 h) was -10%. The “S.B.P. (systolic blood pressure)” value ([9]; oral 5 mg/kg, 3 h) was 190 ± 5 mmHg, the “% Δ (% variation of the S.B.P. over the basal value)” value ([9]; oral 5 mg/kg, 5 h) was -12% and the “S.B.P. (systolic blood pressure)” value ([9]; oral 5 mg/kg, 5 h) was 185 ± 7 mmHg. The “% Δ (% variation of the S.B.P. over the basal value)” value ([9]; oral 5 mg/kg, 7 h) was -10%, the “S.B.P. (systolic blood pressure)” value ([9]; oral 5 mg/kg, 7 h) was 190 ± 4 mmHg and the “S.B.P. (systolic blood pressure)” value ([9]; oral 5 mg/kg, time 0 h (basal value), 3 animals) was 210 ± 7 mmHg. The “% Δ (% variation of the S.B.P. over the basal value)” value ([9]; oral 10 mg/kg, 1 h) was -8%, the “S.B.P. (systolic blood pressure)” value ([9]; oral 10 mg/kg, 1 h) was 190 ± 4 mmHg and the “% Δ (% variation of the S.B.P. over the basal value)” value ([9]; oral 10 mg/kg, 3 h) was -13%. The “S.B.P. (systolic blood pressure)” value ([9]; oral 10 mg/kg, 3 h) was 180 ± 7 mmHg, the “% Δ (% variation of the S.B.P. over the basal value)” value ([9]; oral 10 mg/kg, 5 h) was -22% and the “S.B.P. (systolic blood pressure)” value ([9]; oral 10 mg/kg, 5 h) was 160 ± 10 mmHg. The “% Δ (% variation of the S.B.P. over the basal value)” value ([9]; oral 10 mg/kg, 7 h) was -18%, the “S.B.P. (systolic blood pressure)” value ([9]; oral 10 mg/kg, 7 h) was 170 ± 8 mmHg and the “S.B.P. (systolic blood pressure)” value ([9]; oral 10 mg/kg, time 0 h (basal value)) was 205 ± 7 mmHg. The “% Δ (% variation of the S.B.P. over the basal value)” value ([9]; oral 20 mg/kg, 1 h) was -8%, the “S.B.P. (systolic blood pressure)” value ([9]; oral 20 mg/kg, 1 h) was 175 ± 7 mmHg and the “% Δ (% variation of the S.B.P. over the basal value)” value ([9]; oral 20 mg/kg, 3 h) was -14%. For the same molecule, the “S.B.P. (systolic blood pressure)” value ([9]; oral 20 mg/kg, 3 h) was 165 ± 8 mmHg, the “% Δ (% variation of the S.B.P. over the basal value)” value ([9]; oral 20 mg/kg, 5 h) was -27% and the “S.B.P. (systolic blood pressure)” value ([9]; oral 20 mg/kg, 5 h) was 140 ± 7 mmHg. For the same molecule, the “% Δ (% variation of the S.B.P. over the basal value)” value ([9]; oral 20 mg/kg, 7 h) was -32%, the “S.B.P. (systolic blood pressure)” value ([9]; oral 20 mg/kg, 7 h) was 130 ± 7 mmHg and the “S.B.P. (systolic blood pressure)” value ([9]; oral 20 mg/kg, time 0 h (basal value)) was 190 ± 8 mmHg. The “duration of the reduction of the blood pressure” value ([9]; renal hypertensive dogs, oral) was “still present seven hours after administration”, the “CNS depressant effect during the prolonged treatment” value [10] was “no tachycardia or CNS depressant effect was observed” and the “tachycardia during the prolonged treatment” value [10] was “no tachycardia”. For the same molecule, the LD50 ([11]; ip, intraperitoneal) was ~600 mg/kg and the LD50 ([11]; po, per os) was ~1000 mg/kg.
